Reference: patent US12357553B2, “Composition for treating hair loss or promoting hair growth, comprising piperonylic acid” (HESED BIO CO., LTD., priority 2017, dated 2025)

What was measured:
[1] = tested on: c-myc, c-jun, c-fos, and egr-1 genes; test: Change in gene expression in HaCaT cells (real-time quantitative PCR, Western blotting); assay type: cell-based
From the text: Signaling by EGFR induces gene expression that is important for cell growth and survival via important signaling mediator proteins which are ERK and AKT. It is well known that c-myc, c-jun, c-fos, and egr-1 genes are genes which are regulated by EGFR and promote cell growth and survival. […] Specifically, a Tri-reagent was used for mRNA extraction, cDNA was made by a reverse transcription polymerase chain reaction (RT-PCR) using a poly-A primer and a reverse transcriptase, and the amount of each mRNA was measured using real-time quantitative PCR. The amount of each mRNA was corrected with the amount of β-actin which is a housekeeping gene.

ERK = ERK activation (phosphorylation) in HaCaT cells, Western blotting; assay type: cell-based
Method: (§1) It is well known that the activation of extracellular signal-regulated kinase (ERK) and protein kinase B (AKT) are induced by the EGFR activation and transmit signals required for cell growth and survival. Accordingly, as the activation of EGFR by piperonylic acid was verified in Examples 2 and 3, it was determined whether ERK and AKT, the downstream of EGFR, were also activated by piperonylic acid. Specifically, after HaCaT cells were cultured in a serum-free medium, the cells were treated with piperonylic acid at 0, 25, and 100 μM, and then ERK and AKT, which were activated when phsphorylated, were analyzed by Western blotting method. As antibodies, phosphor-site specific antibodies which are labeling factors of activated ERK and AKT and antibodies that measure total ERK and AKT were used, and GAPDH expressed from a housekeeping gene was measured in order to correct the amount of total proteins between lanes.
(§2) Subsequently, in order to confirm the pattern of ERK and AKT activities by piperonylic acid treatment over time, HaCaT cells cultured in a serum-free medium were treated with piperonylic acid, and then the activity pattern over time was analyzed.
(§3) In order to verify that the activation of ERK and AKT by piperonylic acid were induced by EGFR, the activity of EGFR was suppressed by treating cells with tyrphostin AG1478 which is an EGFR antagonist, and then the activities of ERK and AKT by piperonylic acid were analyzed.

AKT = AKT activation (phosphorylation) in HaCaT cells, Western blotting; assay type: cell-based
Method: as §1, §2, §3

HaCaT cells [2] = test: Resistance to UVB-induced cell damage, cell viability by CCK-8; assay type: cell-based; conditions: UVB at 25 mJ/cm^2, 100 μM; negative control 84%
Method: Among the ultraviolet wavelengths, the UVB wavelength corresponding to 280 to 315 nm penetrates the epidermal layer where many keratinocytes are present to cause cell damage. […] The solvent DMSO was used as a negative control, and cell viability was measured using the CCK-8 method used in Example 7.

HaCaT cells [3] = test: Growth promotion of keratinocytes by CCK-8 assay; assay type: cell-based; conditions: 50 μM and 100 μM, 24 hours, serum-free, compared to the negative control
Method: Cell counting kit-8 (CCK-8) is a water-soluble tetrazolium salt reagent called WST-8, and forms orange water-soluble formazan by a dehydrogenase in the mitochondria of living cells. The absorbance of the orange wavelength at 450 nm as indicated by CCK-8 reflects the number of cells, and thus has been used to measure cell growth and proliferation. The growth promotion efficacy of keratinocytes, HaCaT cells, was measured by CCK-8 assay using non-cytotoxic piperonylic acid at a concentration of 50 μM and 100 μM. Specifically, after 1×10^4 HaCaT cells were cultured on a 96-well plate for 24 hours, growth factors in the medium were removed by exchanging the medium with a serum-free medium, and then the cells were treated with piperonylic acid. […] After the cells were cultured for 24 hours, the cell growth was analyzed by treating the cells with CCK8 and measuring the absorbance at 450 nm.

EGFR [4] = target: T1, EGFR (Homo sapiens, UniProt P00533); test: Tyrosine phosphorylation of EGFR in HaCaT cells (immunoprecipitation, Western blotting); assay type: cell-based; set-up: endogenous in cells; host or cells: HaCaT cells; conditions: 100 μM for 10 minutes, compared to DMSO
Method: In order to confirm whether the binding of piperonylic acid with EGFR directly induces the EGFR activation, HaCaT cells cultured in a serum-free medium were treated with piperonylic acid at a concentration of 100 μM for 10 minutes, and then the activation was measured through an increasing tyrosine phosphorylation of EGFR. Specifically, after only EGFR was precipitated from 500 μg of cell lysate by immunoprecipitation using anti-EGFR antibody and protein-G agarose beads, the level of tyrosine phosphorylation was analyzed by Western blotting method.

EGFR [5] = target: T1, EGFR; test: Pull-down of EGFR from HaCaT cell lysate with piperonylic acid-conjugated Sepharose 4B bead, Western blotting; assay type: binding; set-up: endogenous in cells; host or cells: HaCaT cells; conditions: 100 μM of free piperonylic acid added with the cell lysate
Method: In order to investigate the mechanism of EGFR activation by piperonylic acid confirmed in Example 2, it was confirmed in the present example whether piperonylic acid could interact with EGFR. For this purpose, piperonylic acid-4B bead was manufactured by conjugating piperonylic acid to a Cyanogen bromide-activated-Sepharose 4B bead purchased from Sigma-Aldrich. Equal amounts of HaCaT cell lysates were incubated with piperonylic acid-4B bead and control-4B used as the control, and proteins bound to the bead were analyzed by the Western blotting method. An anti-EGFR antibody was used in order to measure EGFR among the precipitated proteins, and anti-Actin and anti-GAPDH antibodies against actin and GAPDH proteins present in large amounts as housekeeping genes were used in order to support that the binding to piperonylic acid was selective.

cyclin D = test: Cyclin D protein level in dermal papilla cells, western blotting; assay type: cell-based, human; conditions: 25 and 50 μM, 24 hours, compared to the control
Method: In addition, in order to investigate a gene expression pattern involved in the proliferation of dermal papilla cells related to androgenic alopecia, the human dermal papilla cells were cultured in a serum-free medium for 24 hours, and then treated with 25 and 50 μM piperonylic acid, respectively. The cells were treated with a drug, and after 24 hours, the levels of cyclin D were analyzed by the western blotting method. As an antibody, GAPDH, which is always expressed constantly, was used to correct the total protein amount between the cyclin D antibody and each lane. A solvent DMSO was used as a negative control.

EGFR [6] = target: T1, EGFR; test: EGFP-SH2 biosensor system measuring EGFR activation (internalization) in A549 cells; assay type: cell-based; conditions: 100 μM, compared to DMSO control
Method: Using these characteristics, a biosensor system was manufactured such that EGFR internalization by the EGFR activation could be measured by a fluorescent protein. Specifically, an EGFP-SH2 vector was manufactured by removing only the SH2 domain of Grb2 and inserted it in an enhanced green fluorescent protein (EGFP) vector using recombinant DNA technology, and then introduced it into A549 cells for expression.
After being cultured in a serum-free medium for 24 hours, the cells were treated with piperonylic acid.

HaCaT cells [7] = test: Cytotoxicity by MTT in HaCaT keratinocytes; assay type: cell-based
Method: The cytotoxicity of piperonylic acid was measured using HaCaT cells which are keratinocytes. When cells are treated with a yellow water-soluble substrate MTT tetrazolium, the substrate is reduced to MTT formazan by mitochondrial enzymes and the color changes to blue-violet. Since the more living cells there are, the darker the blue-violet color appears, the blue-violet absorbance at 540 nm reflects the concentration of living cells. Specifically, after cells were cultured fully in each well of a 96-well plate, cells were treated with piperonylic acid at a concentration of 0, 25, 50, 100, 250, and 500 μM and cultured at 37° C. in a 5% CO2 incubator for 24 hours and 48 hours, and then the viability of cells was measured by an MTT reagent. A control (0 μM) that had not been treated with piperonylic acid was treated with an equal amount of solvent, DMSO.

[8] = tested on: dermal papilla cells related to androgenic alopecia; test: Scratch (yellow tip) proliferation assay in dermal papilla cells related to androgenic alopecia; assay type: cell-based, human; conditions: 100 μM, 24 hours and 48 hours, serum-free, vs DMSO
From the text: Meanwhile, in order to investigate the proliferation pattern of dermal papilla cells related to androgenic alopecia during treatment with piperonylic acid, a 12-well cell culture plate was fully filled with the dermal papilla cells, and the cells were injured using a yellow tip. […] A solvent DMSO was used as a negative control.

HaCaT cells [9] = test: Wound healing assay in keratinocytes; assay type: cell-based; conditions: 50 μM and 100 μM, culturing for 3 days, vs negative control
Method: Further, the cell growth promotion efficacy by piperonylic acid was confirmed through a wound healing assay. Specifically, after HaCaT cells were cultured fully on a 12-well plate, a wound area was formed using a yellow tip, and the cells were treated with piperonylic acid at 50 μM and 100 μM after exchanging the medium with a serum-free medium.

[10] = tested on: dermal papilla cells related to androgenic alopecia; test: Proliferation of dermal papilla cells related to androgenic alopecia by MTT; assay type: cell-based, human; conditions: 50 μM, 24 hours, serum-free, vs DMSO
From the text: The dermal papilla cells related to androgenic alopecia used in the experiment were a cell line that was immortalized by inserting hTERT and SV40-Tag into dermal papilla cells (DPCs, passage 1) derived from male androgenic alopecia patients, and purchased from Epibiotech Co., Ltd. and used. The proliferation of dermal papilla cells was confirmed using MTT tetrazolium. MTT tetrazolium is reduced to MTT formazan by intracellular mitochondrial enzymes, and at this time, the yellow color turns blue violet. The more cells there are, the stronger the reduction, so a stronger blue violet color appears, and the concentration of living cells is measured by measuring the absorbance of the blue violet color at 540 nm. Specifically, 1×10^4 cells are aliquoted into 96-well cell culture plates and cultured for 24 hours. Thereafter, a serum-free medium was treated with 50 μM piperonylic acid, and then cultured for 24 hours. Then, after the cells were treated with the MTT reagent for 2 hours, cell growth was analyzed by adding DMSO thereto and confirming the color development at […]. A solvent DMSO was used as a negative control.

[11] = AG1478 at 200 nM for 10 minutes, then piperonylic acid
[12] = 100 μM, 10 minutes, compared to the control
[13] = piperonylic acid treatment, serum-free medium

T1 sequence (P00533 25-1210): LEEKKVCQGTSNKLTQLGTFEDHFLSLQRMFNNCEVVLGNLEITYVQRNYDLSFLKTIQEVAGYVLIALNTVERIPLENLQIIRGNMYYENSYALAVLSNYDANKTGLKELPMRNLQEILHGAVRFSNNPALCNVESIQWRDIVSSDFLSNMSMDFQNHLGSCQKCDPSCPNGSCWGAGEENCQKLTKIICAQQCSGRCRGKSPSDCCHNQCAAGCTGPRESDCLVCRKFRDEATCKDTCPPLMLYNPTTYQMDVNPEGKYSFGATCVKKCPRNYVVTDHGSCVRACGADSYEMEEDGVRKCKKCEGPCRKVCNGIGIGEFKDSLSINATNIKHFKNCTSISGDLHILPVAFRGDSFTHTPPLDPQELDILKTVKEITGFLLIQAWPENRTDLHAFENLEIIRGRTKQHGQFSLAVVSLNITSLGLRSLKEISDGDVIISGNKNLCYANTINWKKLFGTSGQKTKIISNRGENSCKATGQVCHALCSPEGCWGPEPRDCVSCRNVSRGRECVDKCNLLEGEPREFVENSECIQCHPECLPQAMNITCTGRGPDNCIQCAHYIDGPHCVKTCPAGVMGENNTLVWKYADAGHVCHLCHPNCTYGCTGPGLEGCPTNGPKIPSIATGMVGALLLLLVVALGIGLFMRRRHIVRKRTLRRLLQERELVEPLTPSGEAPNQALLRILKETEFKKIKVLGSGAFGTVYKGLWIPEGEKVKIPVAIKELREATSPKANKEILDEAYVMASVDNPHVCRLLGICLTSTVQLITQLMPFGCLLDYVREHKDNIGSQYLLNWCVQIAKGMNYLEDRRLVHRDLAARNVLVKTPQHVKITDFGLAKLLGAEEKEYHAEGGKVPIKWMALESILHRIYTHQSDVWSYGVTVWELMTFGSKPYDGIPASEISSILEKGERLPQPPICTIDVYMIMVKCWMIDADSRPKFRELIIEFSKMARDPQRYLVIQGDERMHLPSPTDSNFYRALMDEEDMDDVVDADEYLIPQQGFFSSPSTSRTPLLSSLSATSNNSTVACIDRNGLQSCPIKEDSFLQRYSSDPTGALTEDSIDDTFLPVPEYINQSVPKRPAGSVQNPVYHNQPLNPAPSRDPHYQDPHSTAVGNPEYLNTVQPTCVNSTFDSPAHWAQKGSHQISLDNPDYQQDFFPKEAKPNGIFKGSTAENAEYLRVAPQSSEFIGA

Structure (SMILES)	gene expression of c-fos and egr-1 increased by piperonylic acid ([1]; AG1478 pre-treatment, piperonylic acid at 100 μM, 2 hours)	ERK activation by piperonylic acid after EGFR antagonist (ERK; [11])	AKT activation by piperonylic acid after EGFR antagonist (AKT; [11])	cells survived after UVB (HaCaT cells [2])	cell growth and proliferation (CCK-8) (HaCaT cells [3])	tyrosine phosphorylation of EGFR (EGFR [4])	amount of EGFR bound to bead under competition (EGFR [5])	expression of cyclin D protein (cyclin D)	EGFR activation in biosensor system (change in fluorescence signal) (EGFR [6])	cytotoxicity to keratinocytes (HaCaT cells [7]; 0-500 μM, 24 and 48 hours)	difference in cell viability from control (HaCaT cells [7]; 500 μM for 48 hours)	expression of Egr-1 and c-Fos proteins ([1]; 100 μM)	mRNA expression of c-jun ([1]; 100 μM, 0, 1, 2, and 6 hours)	cell proliferation of dermal papilla cells (scratch) [8]	ERK activation (ERK; [12])	pattern of ERK activity over time (ERK; [13])	filling of wound area (HaCaT cells [9])	AKT activation (AKT; [12])	pattern of AKT activity over time (AKT; [13])	cell proliferation of dermal papilla cells (MTT) [10]
COc1cc2ncnc(Nc3cccc(Cl)c3)c2cc1OC [AG1478, tyrphostin AG1478, reference compound]	completely suppressed	not activated	not activated	–	–	–	–	–	–	–	–	–	–	–	–	–	–	–	–	–
O=C(O)c1ccc2c(c1)OCO2 [piperonylic acid]	–	–	–	89%	significantly increased	1.8 fold	the amount of EGFR bound thereto was reduced	significantly increased	EGFR was activated	very low	about 10%	increase in expression	increasing tendency	promoted cell proliferation	3.3 fold	rapidly induced for 5 to 10 minutes	more rapidly filled	2.1 fold	rapidly induced for 5 to 10 minutes	promoted cell proliferation
